# Experimental data taken from patent US10300070B2, “Metabolically-activated drug conjugates to overcome resistance in cancer therapy” (The Brigham and Women's Hospital, Inc., priority 2014, dated 2019).
# Assays:
# Assay type in all cases: cell-based
# CD44 = test: Cell surface CD44 expression by FACS; conditions: sub-lethal docetaxel (25 nM), MDA-MB-231
# Experimental: DU145 and DU145-TxR were provided by A. Mizokami^63 and cultured in DMEM containing 10% FBS, resistant line included 100 nM paclitaxel in the culture media. During treatments with chemotherapeutics, cells were grown to semi-confluence and treated with indicated concentrations of chemotherapy in serum-containing medium for indicated time points. When small molecule inhibitors were included in treatments, they were added simultaneously with chemotherapy. […] Scrambled siRNA was used as a control. For chemotherapy treatment experiments: Cancer cells were plated at a density of 0.5-1×10^5 cells/ml and allowed to adhere for 24-48 hr. […] Following washes with PBS, adherent cells were trypsinized and re-plated at a density of 1.5-2×10^5 cells/ml and cultured in serum-containing medium. […] A population of drug naïve parent cells were always cultured alongside DTC and fresh media was added at every interval that experimental population (DTC) received fresh media.
# Cells were cultured as indicated, removed from culture dishes with accutase stem-pro dissociation reagent (Invitrogen, Carlsbad Calif.) and fixed with 4% paraformaldehyde in PBS for 30 min at RT, washed twice with PBS and blocked in 10% goat serum (v/v). Whenever necessary, cells were permeabilized with 0.05% saponin in PBS. Cells were incubated with CD44-APC (BD biosciences, San Jose, Calif.) overnight at 4 C and analyzed by FACS (C6 Accuri cyomteters Inc Ann Arbor, Mich.), data analysis using FlowJo software (Tree Star Inc., Ashland Oreg.) and Accuri cFlow plus software to obtain and confirm mean fluorescent intensity (GNU.org).
# MDA-MB-231 parent or DTC = test: Glucose uptake (2-NBDG) determined by FACS; conditions: sub-lethal docetaxel (25 nM), MDA-MB-231
# Experimental: MDA-MB-231 (ATCC), MDA-MB-468 and 4T-1 mammary carcinoma cells (ATCC) were cultured in DMEM containing 10% Fetal Bovine Serum (FBS) at 37 C and 5% CO2. DU145 and DU145-TxR were provided by A. Mizokami^63 and cultured in DMEM containing 10% FBS, resistant line included 100 nM paclitaxel in the culture media. During treatments with chemotherapeutics, cells were grown to semi-confluence and treated with indicated concentrations of chemotherapy in serum-containing medium for indicated time points. When small molecule inhibitors were included in treatments, they were added simultaneously with chemotherapy. For siRNA gene knockdown, cells were transfected with silencer-select siRNA plasmids (Ambion, Invitrogen, Grand Island, N.Y.) pan-CD44(1) (s2682) panCD44(2) (s2681), siHIF1A (s6539) using lipofectamine 2000 (Invitrogen, Carlsbad Calif.) following manufacturer protocol and cultured for 72 hours prior to treatment. Scrambled siRNA was used as a control. For chemotherapy treatment experiments: Cancer cells were plated at a density of 0.5-1×10^5 cells/ml and allowed to adhere for 24-48 hr. When cells reached ˜70% confluency they were treated with cytotoxics at indicated concentrations for 24-48 hours and utilized for subsequent assays. For experiments in which a shorter incubation was used (i.e. 15 min-4 hours) fresh media was added 24 hours prior to addition of chemotherapy suspended to stock concentration in PBS. For generation of DTC: Cells were treated for 48 hours with chemotherapy. Following washes with PBS, adherent cells were trypsinized and re-plated at a density of 1.5-2×10^5 cells/ml and cultured in serum-containing medium. After 24 hours incubation, floating cells were removed and remaining cells were washed with 1× PBS and considered as chemotherapy-tolerant cells. A population of drug naïve parent cells were always cultured alongside DTC and fresh media was added at every interval that experimental population (DTC) received fresh media.
# In vitro detection of glucose uptake was performed using 2-(N-7-Nitrobenz-2-oxa-1,3-diazol-4-yl)Amino)-2-Deoxyglucose (2-NBDG) (Invitrogen, Carlsbad Calif.), dissolved in DMSO to 50 mM. Cells were pre-treated with kinase inhibitors or vehicle for 3 hours in glucose- and phenol red-free media before addition of 50 μM 2-NBDG and subsequently read by FACS ex/em 488/535 nm. ROS was determined by pre-loading cells with CM-DCFDA (1 μM), washed 2 times with PBS and subsequently treated with H2O2 or vehicle; when kinase inhibitors were included in treatment, cells were first incubated with inhibitor for 3 hours prior to CM-DCFDA loading. Fluorescence was then determined by FACS ex/em 488/535 nm. For the following assays, cells were trypsinized and counted by Nexcelom cell counter (Lawrence, Mass.) prior to being subjected to analysis in order to achieve a quantitative value per cell: Reduced glutathione was determined using a colorimetric glutathione recycling system by DTNB following manufacturer protocol (Biovision, Milpitas Calif.). ATP analysis was performed using the ATP colorimetric analysis kit (Biovision) according to manufacturer protocol. Reductive stress was detected using the Enzo nitroreductase hypoxia kit (Enzo Life Sciences, Ann Arbor Mich.) following manufacturer protocol and visualized by fluorescent microscopy; a set of non-docetaxel-treated control cells loaded with fluorescent probe were compared against docetaxel-treated cells to derive a % redox stress increase which was calculated as fluorescence intensity of nitroreductase probe per cell and expressed as increase from vehicle. Protein synthesis was measured by two means 1. L-azidohomoalanine amino acid analog of methionine containing an azide moiety was added to cultured cells (parent or DTC) for 3 hours which is incorporated into proteins during active protein synthesis. […]
# MDA-MB-231 cells = test: Single cell, real-time assessment of mitochondrial ROS (MitoSox); conditions: docetaxel 50 nM
# Experimental: Single cell analysis was performed as follows: Mitosox Red (Invitrogen, Carlsbad Calif.) was incubated with live parent cells for 30 minutes (5 μM), washed and recovered in phenol red-free DMEM with 2% FBS and treated with docetaxel (50 nM). Equivalent exposure times of immunofluorescent microscopy were used at each interval which was originally set at time 0 against an unstained control cell population. Images were captured by a NIKON Eclipse TI-U microscope with a 20× ELDW or 10× or 40× Plan-Apo objective lens (Nikon, Melville N.Y.) and NIS Elements Viewer version 3.22 (Nikon, Melville N.Y.) imaging software. A negative control (non-transfected) cell subset was used to normalize background and autofluorescence following docetaxel treatment. Individual cells were tracked over time and indications of cell death were noted using a 2 TdT-Fluor In Situ apoptosis detection kit (Trevigen Gaithersburg Md.). Cells were plotted as a function of apoptosis induction (or loss of adherence to culture dish indicating cell death) and changes in Mitosox fluorescence over time as shown in main figures.
structure (smiles),measurement,setting,value
CC(=O)O[C@@]12CO[C@@H]1C[C@H](O)[C@@]1(C)C(=O)[C@H](O)C3=C(C)[C@@H](OC(=O)[C@H](O)[C@@H](NC(=O)OC(C)(C)C)c4ccccc4)C[C@@](O)([C@@H](OC(=O)c4ccccc4)[C@H]21)C3(C)C [docetaxel],time to induction of cell surface CD44,CD44,≤ 4 h
same,time point at which augmented glucose uptake was observed,MDA-MB-231 parent or DTC,24 h
same,time of mitochondrial ROS burst in cells which survive,MDA-MB-231 cells,4 to 8 h
